Reference: paper PMC10885153, “Membrane Permeability in a Large Macrocyclic Peptide Driven by a Saddle-Shaped Conformation” (Journal of the American Chemical Society, 2024)
≈ marks a conversion by molar mass, not a printed value. Where two headings read alike, the source gives them in different places. Positions of bridges follow the written chain, without caps; N, C: chain ends. Non-standard residues stand in square brackets, D forms with d. Residues, ends and D or L forms follow the SMILES beside them. Cha = N[C@@H](CC1CCCCC1)C(=O)O; NMeNva = CCC[C@H](NC)C(=O)O; NMeAbu = CC[C@H](NC)C(=O)O; NMeC = CN[C@@H](CS)C(=O)O; NMeA = CN[C@@H](C)C(=O)O; dAbu = CC[C@@H](N)C(=O)O; dNMeA = CN[C@H](C)C(=O)O; Nva = CCC[C@H](N)C(=O)O; Abu = CC[C@H](N)C(=O)O; Nleu = CC(C)CNCC(=O)O; NPrGly = CCCNCC(=O)O; NEtG = CCNCC(=O)O

Experiments:
[1] = MDCK
Description: (§1) We also tested the permeabilities of the pure compounds in a cell-based trans-well permeability assay using Mdr1 knockout Madin–Darby canine kidney (MDCK) cells which minimize the endogenous efflux activity of traditional MDCK cells.[54]
(§2) The gMDCKI cell line (overexpressed cell line of Madin -Darby Canine Kidney which acquired from the NIH)
(§3) maintained in DMEM medium supplemented with 1% pen -strep, 5 µg/mL Plasmocin, and 10% FBS under
(§4) standard culture conditions (37 °C, 95% humidity, and 5% CO2), were seeded (0.75 x 10^5 cells) on the HTS
(§5) Transwell-96 permeable support (Corning) to form a confluent monolayer for two days.
(§6) All experimental steps were fully automated on Hamilton Vantage. Compound stock solution (1 mM in
(§7) DMSO) was diluted (10 μM final in HBSS, pH 7.4) with Lucifer Yellow as leakage indicator (20 μM). After
(§8) washing with HBSS buffer, the solution of test compounds was added to the apical side of the monolayers.
(§9) The plate was incubated for 3 h at 37 °C. T0 samples (10 µL of the 10 µM compounds diluted solution with
(§10) LY) were transferred to a 96-well plate, and then 40 µL of HBSS was added. After 3 hours, 50 μL basolateral
(§11) samples in the receiving plate were transferred to a fresh 96-well plate and added 100 μL of IS solution
(§12) (Propranolol). LY were read by plate reader and the samples were analyzed by LC/MS/MS.
(§13) The apparent permeability coefficient (Papp) is calculated from the permeation rate and compound
concentration at t=0h and t=3h. Where:
(§14) dQ/dt: amount of product present in the basal (A-B) or apical (B-A) compartment as a function of time
A: area of transwell (cm2).
(§15) C0: initial concentration of product applied in the apical (A -B) or basal (B-A) compartment (nmol/ml).

in vitro [2] = details: dog, pH 7.4
Description: as §1, §2, §3, §4, §5, §6, §7, §8, §9, §10, §11, §12, §13
concentration at t=0h and t=3h. Where:
as §14
A: area of transwell (cm2).
as §15

[3] = test system: Mdr1 knockout Madin–Darby canine kidney (MDCK) cells
Description: as §1, §2, §3, §4, §5, §6, §7, §8, §9, §10, §11, §12, §13
concentration at t=0h and t=3h. Where:
as §14
A: area of transwell (cm2).
as §15

in vitro [4] = details: PAMPA
Description: (§16) assay was carried out with a 96-well donor plate with 0.45 μ hydrophobic Immobilon-P membrane supports
(§17) (Millipore MAIPNTR10) and a 96-well Teflon acceptor plate (Millipore MSSACCEPTOR). The PAMPA
protocol then proceeded as follows:
(§18) Donor well solutions were prepared to a volume of 1 000 µL with the analytes as a solution in 1X
(§19) PBS pH 7.4 and 5% DMSO. To a 3 mL Eppendorf tube was added 950 µL of 1X PBS pH 7.4, 40
Analyte – 10 µM per compound
(§20) sonicated (5 min) to ensure full dissolution of the lecithin. The donor membrane plate was turned
(§21) upside down and bottom of the membranes exposed. 5 µL of the 1% soy lecithin solution in
(§22) dodecane was then placed on the bottom of the membrane, allowing the drop to spread across the
(§23) full area of the membrane. Any membranes with visible damage were not used in the assay. The
(§24) membranes were allowed to equilibrate for 5 min before loading.
(§25) 3. Each well within the Teflon block acceptor plate that was to be used in the assay was then loaded
(§26) with 300 µL of 1X PBS pH 7.4 and 5% DMSO.
(§27) Working without break, 150 µL of each donor well solution was transferred from the to the 96-well
(§28) donor plate. Each mixture of interest was r un in quadruplicate, using a new well for each replicate.
(§29) As soon as the 96-well donor plate was finished being loaded, it was gently placed into the 96-well
(§30) Teflon acceptor plate, taking care not to trap any air bubbles beneath the membrane.
(§31) The donor/acceptor plates were covered gently with the lid to minimize evaporation and transferred
(§32) gently as a system to a sealed chamber and left to sit overnight at room temperature. The chamber
(§33) was kept from drying by placing a wet paper towel within to prevent evaporation.
(§34) After ~19-20 hours the donor plate was removed from the acceptor plate.
(§35) 50 µL of each well (donor and acceptor) were transferred to a 96 -well plate and diluted with 50 µL
(§36) of methanol prior to heat sealing and quantification by UPLC -MS.

[5] = PAMPA, 10 µM, pH 7.4
Description: (§37) Passive permeabilities of the 36 compounds were measured in multiplex as mixtures of six compounds each using the parallel artificial membrane permeability assay (PAMPA).[44]−[46]
(§38) Protocol is identical for both mixture and pure compound analysis.
(§39) Two of the following: Carbamazepine (CBZ), propranolol (Prop), and 1NMe35 were
(§40) included as internal standards and prepared as DMSO stocks at a concentration of 2 000 µM.
as §16
(§41) (Millipore MAIPNTR10) and a 96-well Teflon acceptor plate (Millipore MSSACCEPTOR).
protocol then proceeded as follows:
as §18, §19
(§42) The solutions were vortexed and set aside.
Analyte – 10 µM per compound
(§43) A 1% solution of soy lecithin in dodecane was freshly prepared in a 3 mL Eppendorf tube and
as §20, §21, §22
(§44) full area of the membrane. Any membranes with visible damage were not used in the assay.
as §24
(§45) Each well within the Teflon block acceptor plate that was to be used in the assay was then loaded
as §26, §27, §28, §29, §30, §31, §32, §33, §34, §35, §36

[6] = 10 µM, pH 7.4
Description: as §16, §17
protocol then proceeded as follows:
as §18, §19
Analyte – 10 µM per compound
as §20, §21, §22, §23, §24, §25, §26, §27, §28, §29, §30, §31, §32, §33, §34, §35, §36

in vitro [7] = details: PAMPA, pH 7.4, Permeability (Papp) PAMPA (mixture)
Description: as §37, §38, §39, §40, §16, §41
protocol then proceeded as follows:
as §18, §19, §42
Analyte – 10 µM per compound
as §43, §20, §21, §22, §44, §24, §45, §26, §27, §28, §29, §30, §31, §32, §33, §34, §35, §36

[8] = pH 7.4, Permeability (Papp) PAMPA (indiv.)
[9] = pH 7.4, aqueous with cosolvent or surfactant or cyclodextrin, kinetic from dmso stock
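Wherever PAMPA Papp avg is given: artificial membrane of 1% soy lecithin in dodecane on a filter plate, donor and acceptor buffer PBS pH 7.4 with 5% DMSO, incubated overnight at room temperature.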

Description for physchem: Kinetic Solubility PBS Protocol
4 µL of 10 mM compound in DMSO stock was added to 196 µL 1 X PBS pH 7.4 in a 96 -well microplate to
get a final concentration of 200 µM to shake for 24 hours at 1000 rpm. The sample was filtered sample
using a 96-Multiscreen HTS filter plate (Millipore MSSL BPC50) and a positive pressure manifold.

| SMILES | %R_avg [5] [%] | Papp at 10 µM (in vitro [4]; [8]) [×10⁻⁶ cm/s] | Papp A→B at 3 h, 10 µM (in vitro [2]; MDCK) [×10⁻⁶ cm/s] | solubility kinetic at 24 h (physchem; [9]) [µM] | further results |
| --- | --- | --- | --- | --- | --- |
| CCOC(=O)[C@@H]1CSCC(=O)N[C@@H](CC)C(=O)N(C)[C@@H](C)C(=O)N[C@@H](CC(C)C)C(=O)N(C)[C@H](C)C(=O)N(CC(C)C)CC(=O)N[C@H](CC(C)C)C(=O)N(C)[C@H](C)C(=O)N[C@@H](CC(C)C)C(=O)N1C [A1-1L, O=C(N(C)[C@H](C(OCC)=O)CSCC(N[C@H](C(N(C)[C@@H](C)C(N[C@@H](CC(C)C)C(N(C)[C@H](C)C(N(CC(C)C)CC(N[C@@H]1CC(C)C)=O)=O)=O)=O)=O)CC)=O)[C@H](CC(C)C)NC([C@@H](C)N(C)C1=O)=O] ({CH2CO}-[Abu][NMeA]L[dNMeA][Nleu][dL][dNMeA]L[NMeC]-OEt; thioether N-9) | – | – | – | – | Papp [1]: 0.9 ×10⁻⁶ cm/s; Papp A→B (in vitro [2]): 0.93 ×10⁻⁶ cm/s |
| CCOC(=O)[C@@H]1CSCC(=O)N[C@H](CC)C(=O)N(C)[C@@H](C)C(=O)N[C@@H](CC(C)C)C(=O)N(C)[C@H](C)C(=O)N(CC(C)C)CC(=O)N[C@@H](CC(C)C)C(=O)N(C)[C@H](C)C(=O)N[C@@H](CC(C)C)C(=O)N1C [A1-6L, O=C(N(C)[C@H](C(OCC)=O)CSCC(N[C@@H](C(N(C)[C@@H](C)C(N[C@@H](CC(C)C)C(N(C)[C@H](C)C(N(CC(C)C)CC(N[C@H]1CC(C)C)=O)=O)=O)=O)=O)CC)=O)[C@H](CC(C)C)NC([C@@H](C)N(C)C1=O)=O] ({CH2CO}-[dAbu][NMeA]L[dNMeA][Nleu]L[dNMeA]L[NMeC]-OEt; thioether N-9) | – | – | – | – | Papp [1]: 0.9 ×10⁻⁶ cm/s; Papp A→B (in vitro [2]): 0.86 ×10⁻⁶ cm/s |
| CCOC(=O)[C@@H]1CSCC(=O)N[C@H](CC)C(=O)N(C)[C@@H](C)C(=O)N[C@@H](CC(C)C)C(=O)N(C)[C@H](C)C(=O)N(CC(C)C)CC(=O)N[C@H](CC(C)C)C(=O)N(C)[C@@H](C)C(=O)N[C@@H](CC(C)C)C(=O)N1C [A1-7L, O=C(N(C)[C@H](C(OCC)=O)CSCC(N[C@@H](C(N(C)[C@@H](C)C(N[C@@H](CC(C)C)C(N(C)[C@H](C)C(N(CC(C)C)CC(N[C@@H]1CC(C)C)=O)=O)=O)=O)=O)CC)=O)[C@H](CC(C)C)NC([C@H](C)N(C)C1=O)=O] ({CH2CO}-[dAbu][NMeA]L[dNMeA][Nleu][dL][NMeA]L[NMeC]-OEt; thioether N-9) | – | – | – | – | MDCK Pe_avg ([3]; resynthesized stereoscan compounds, 10 μM, HBSS pH 7.4, 3 h): 6.41 ×10⁻⁶ cm/s |
| CCOC(=O)[C@@H]1CSCC(=O)N[C@H](CC)C(=O)N(CC(C)C)CC(=O)N[C@@H](CC(C)C)C(=O)N(C)[C@H](C)C(=O)N(C)[C@@H](C)C(=O)N[C@H](CC(C)C)C(=O)N(C)[C@@H](C)C(=O)N[C@@H](CC(C)C)C(=O)N1C [B1-7L, O=C([C@@H](NC([C@@H](N(C([C@H](NC([C@@H](N(C([C@H](N(C)C([C@@H](NC(CN1CC(C)C)=O)CC(C)C)=O)C)=O)C)C)=O)CC(C)C)=O)C)C)=O)CC(C)C)N([C@@H](CSCC(N[C@H](CC)C1=O)=O)C(OCC)=O)C] ({CH2CO}-[dAbu][Nleu]L[dNMeA][NMeA][dL][NMeA]L[NMeC]-OEt; thioether N-9) | – | – | – | – | MDCK Pe_avg ([3]; dog, MDCK, 3 h, 10 µM, pH 7.4): 1.21 ×10⁻⁶ cm/s; Papp at 10 µM (in vitro [4]; pH 7.4, PAMPA Papp): 5.7 ×10⁻⁶ cm/s; Papp at 3 h, 10 µM (in vitro [2]; MDCK): 1.2 ×10⁻⁶ cm/s |
| CCOC(=O)[C@@H]1CSCC(=O)N[C@@H](CC(C)C)C(=O)N(C)[C@@H](C)C(=O)N[C@@H](CC(C)C)C(=O)N2CCC[C@@H]2C(=O)N(CC)CC(=O)N[C@@H](CC)C(=O)N(C)[C@@H](C)C(=O)N[C@@H](CC(C)C)C(=O)N1C [LA02, O=C(N(C)[C@H](C(OCC)=O)CSCC(N[C@H](C(N(C)[C@@H](C)C(N[C@@H](CC(C)C)C(N1[C@H](CCC1)C(N(CC)CC(N[C@H]2CC)=O)=O)=O)=O)=O)CC(C)C)=O)[C@H](CC(C)C)NC([C@H](C)N(C)C2=O)=O] ({CH2CO}-L[NMeA]L[dP][NEtG][Abu][NMeA]L[NMeC]-OEt; thioether N-9) | 17.1 | 4.1 | 4.5 | – | PAMPA Papp_avg [6]: 4.1 ×10⁻⁶ cm/s; Papp at 3 h, 10 µM (in vitro [2]; MDCK): 4.5 ×10⁻⁶ cm/s; solubility kinetic at 24 h (physchem; pH 7.4, kinetic from dmso stock): 200 µM (≈ 196 µg/mL) |
| CCC[C@@H]1NC(=O)[C@H](C)N(C)C(=O)[C@H](CC(C)C)NC(=O)CSC[C@@H](C(=O)OCC)N(C)C(=O)[C@H](CC(C)C)NC(=O)[C@H](C)N(C)C(=O)[C@H](CC(C)C)NC(=O)CN(CCC)C(=O)[C@H]2CCCN2C1=O [LA07, O=C(N(C)[C@H](C(OCC)=O)CSCC(N[C@H](C(N(C)[C@@H](C)C(N[C@@H](CCC)C(N1[C@H](CCC1)C(N(CCC)CC(N[C@H]2CC(C)C)=O)=O)=O)=O)=O)CC(C)C)=O)[C@H](CC(C)C)NC([C@H](C)N(C)C2=O)=O] ({CH2CO}-L[NMeA][Nva][dP][NPrGly]L[NMeA]L[NMeC]-OEt; thioether N-9) | 6.6 | 1.3 | 8.4 | 122 (≈ 123 µg/mL) | Papp at 10 µM (in vitro [7]): 3 ×10⁻⁶ cm/s |
| CCC[C@@H]1NC(=O)[C@H](C)N(C)C(=O)[C@H](CC(C)C)NC(=O)CSC[C@@H](C(=O)OCC)N(C)C(=O)[C@H](CC(C)C)NC(=O)[C@H](C)N(C)C(=O)[C@H](CC2CCCCC2)NC(=O)CN(CC)C(=O)[C@H]2CCCN2C1=O [LA09, O=C(N(C)[C@H](C(OCC)=O)CSCC(N[C@H](C(N(C)[C@@H](C)C(N[C@@H](CCC)C(N1[C@H](CCC1)C(N(CC)CC(N[C@H]2CC3CCCCC3)=O)=O)=O)=O)=O)CC(C)C)=O)[C@H](CC(C)C)NC([C@H](C)N(C)C2=O)=O] ({CH2CO}-L[NMeA][Nva][dP][NEtG][Cha][NMeA]L[NMeC]-OEt; thioether N-9) | 7.5 | 0.2 | 5.1 | 10 (≈ 10.3 µg/mL) | – |

The next lines start with results.

| %R_avg [5] [%] | Papp at 10 µM (in vitro [4]; [8]) [×10⁻⁶ cm/s] | Papp A→B at 3 h, 10 µM (in vitro [2]; MDCK) [×10⁻⁶ cm/s] | solubility kinetic at 24 h (physchem; [9]) [µM] | SMILES | further results |
| --- | --- | --- | --- | --- | --- |
| 51.1 | 1.1 | 1.8 | 126 (≈ 124 µg/mL) | CCOC(=O)[C@@H]1CSCC(=O)N[C@@H](CC(C)C)C(=O)N(CC)CC(=O)N[C@@H](CC(C)C)C(=O)N2CCC[C@@H]2C(=O)N(C)[C@@H](C)C(=O)N[C@@H](CC)C(=O)N(C)[C@@H](C)C(=O)N[C@@H](CC(C)C)C(=O)N1C [LB02, O=C(N(C)[C@H](C(OCC)=O)CSCC(N[C@H](C1=O)CC(C)C)=O)[C@H](CC(C)C)NC([C@H](C)N(C)C([C@H](CC)NC([C@H](C)N(C)C([C@@H]2N(C([C@H](CC(C)C)NC(CN1CC)=O)=O)CCC2)=O)=O)=O)=O] ({CH2CO}-L[NEtG]L[dP][NMeA][Abu][NMeA]L[NMeC]-OEt; thioether N-9) | Papp at 10 µM (in vitro [7]): 1 ×10⁻⁶ cm/s; Papp A→B at 3 h, 10 µM (in vitro [2]): 1.77 ×10⁻⁶ cm/s |
| 35.8 | – | 2.6 | 105 (≈ 104 µg/mL) | CCCN1CC(=O)N[C@@H](CC(C)C)C(=O)N2CCC[C@@H]2C(=O)N(C)[C@@H](C)C(=O)N[C@@H](CC)C(=O)N(C)[C@@H](C)C(=O)N[C@@H](CC(C)C)C(=O)N(C)[C@H](C(=O)OCC)CSCC(=O)N[C@@H](CC(C)C)C1=O [LB04, O=C(N(C)[C@H](C(OCC)=O)CSCC(N[C@H](C1=O)CC(C)C)=O)[C@H](CC(C)C)NC([C@H](C)N(C)C([C@H](CC)NC([C@H](C)N(C)C([C@@H]2N(C([C@H](CC(C)C)NC(CN1CCC)=O)=O)CCC2)=O)=O)=O)=O] ({CH2CO}-L[NPrGly]L[dP][NMeA][Abu][NMeA]L[NMeC]-OEt; thioether N-9) | MDCK Papp_avg ([3]; dog, MDCK, 3 h, 10 µM, pH 7.4): 2.6 ×10⁻⁶ cm/s |
| 6.4 | 1.4 | 4.4 | 19 (≈ 19.7 µg/mL) | CCC[C@@H]1NC(=O)CN(CC)C(=O)[C@H](CC(C)C)NC(=O)CSC[C@@H](C(=O)OCC)N(C)C(=O)[C@H](CC(C)C)NC(=O)[C@H](C)N(C)C(=O)[C@H](CC2CCCCC2)NC(=O)[C@H](C)N(C)C(=O)[C@H]2CCCN2C1=O [LB09, O=C(N(C)[C@H](C(OCC)=O)CSCC(N[C@H](C1=O)CC(C)C)=O)[C@H](CC(C)C)NC([C@H](C)N(C)C([C@H](CC2CCCCC2)NC([C@H](C)N(C)C([C@@H]3N(C([C@H](CCC)NC(CN1CC)=O)=O)CCC3)=O)=O)=O)=O] ({CH2CO}-L[NEtG][Nva][dP][NMeA][Cha][NMeA]L[NMeC]-OEt; thioether N-9) | – |
| 4.5 | 1.1 | 3.9 | 109 (≈ 111 µg/mL) | CCC[C@@H]1NC(=O)[C@H](C)N(C)C(=O)[C@H](CC(C)C)NC(=O)CSC[C@@H](C(=O)OCC)N(C)C(=O)[C@H](CC(C)C)NC(=O)[C@H](C)N(C)C(=O)[C@H](CC(C)C)NC(=O)[C@H](CCC)N(C)C(=O)[C@H]2CCCN2C1=O [LC07, O=C(N(C)[C@H](C(OCC)=O)CSCC(N[C@H](C(N(C)[C@@H](C)C(N[C@@H](CCC)C(N1[C@H](CCC1)C(N(C)[C@@H](CCC)C(N[C@H]2CC(C)C)=O)=O)=O)=O)=O)CC(C)C)=O)[C@H](CC(C)C)NC([C@H](C)N(C)C2=O)=O] ({CH2CO}-L[NMeA][Nva][dP][NMeNva]L[NMeA]L[NMeC]-OEt; thioether N-9) | – |
| 6.1 | 0.3 | 1.8 | 10 (≈ 10.5 µg/mL) | CCC[C@@H]1NC(=O)[C@H](C)N(C)C(=O)[C@H](CC(C)C)NC(=O)CSC[C@@H](C(=O)OCC)N(C)C(=O)[C@H](CC(C)C)NC(=O)[C@H](C)N(C)C(=O)[C@H](CC2CCCCC2)NC(=O)[C@H](CC)N(C)C(=O)[C@H]2CCCN2C1=O [LC09, O=C(N(C)[C@H](C(OCC)=O)CSCC(N[C@H](C(N(C)[C@@H](C)C(N[C@@H](CCC)C(N1[C@H](CCC1)C(N(C)[C@@H](CC)C(N[C@H]2CC3CCCCC3)=O)=O)=O)=O)=O)CC(C)C)=O)[C@H](CC(C)C)NC([C@H](C)N(C)C2=O)=O] ({CH2CO}-L[NMeA][Nva][dP][NMeAbu][Cha][NMeA]L[NMeC]-OEt; thioether N-9) | MDCK Papp_avg ([3]; dog, MDCK, 3 h, 10 µM, pH 7.4): 1.8 ×10⁻⁶ cm/s |
